Data: PMC5462101 (Future medicinal chemistry, 2015)

What was measured:
soybean lipoxygenase = target: T1, soybean lipoxygenase (Glycine max, UniProt P08170); assay: Inhibition of soybean lipoxygenase; type: biochemical; settings: for inhibition at 100 µM: compound at 100 µM, read-out: Lipoxygenase inhibitory activity (% at 100 µM); for IC50: sodium linoleate 0.1 mM, read-out: Lipoxygenase inhibitory activity (IC50)
T1 construct: purchased Sigma
T1 sequence (P08170 1-839): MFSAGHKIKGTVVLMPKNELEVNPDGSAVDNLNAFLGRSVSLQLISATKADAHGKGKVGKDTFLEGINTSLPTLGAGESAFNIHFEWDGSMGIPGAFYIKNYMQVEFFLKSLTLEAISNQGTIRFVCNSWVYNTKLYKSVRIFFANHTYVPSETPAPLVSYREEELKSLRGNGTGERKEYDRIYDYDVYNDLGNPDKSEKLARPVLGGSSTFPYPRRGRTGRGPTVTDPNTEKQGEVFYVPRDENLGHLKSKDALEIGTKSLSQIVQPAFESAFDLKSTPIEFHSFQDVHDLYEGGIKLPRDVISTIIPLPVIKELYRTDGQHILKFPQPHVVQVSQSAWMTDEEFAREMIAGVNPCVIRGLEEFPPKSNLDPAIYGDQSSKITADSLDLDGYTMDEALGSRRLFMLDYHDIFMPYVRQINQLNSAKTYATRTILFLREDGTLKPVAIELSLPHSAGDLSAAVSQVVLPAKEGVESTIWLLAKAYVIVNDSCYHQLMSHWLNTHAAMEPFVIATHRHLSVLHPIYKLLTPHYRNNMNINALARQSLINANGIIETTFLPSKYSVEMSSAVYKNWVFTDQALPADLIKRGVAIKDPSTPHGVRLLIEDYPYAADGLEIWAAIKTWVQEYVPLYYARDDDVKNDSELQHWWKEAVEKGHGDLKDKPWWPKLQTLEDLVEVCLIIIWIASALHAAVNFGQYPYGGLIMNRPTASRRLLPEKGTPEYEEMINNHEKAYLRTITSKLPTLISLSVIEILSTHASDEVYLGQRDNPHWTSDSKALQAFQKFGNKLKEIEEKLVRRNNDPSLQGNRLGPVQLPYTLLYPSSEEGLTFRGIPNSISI
Procedure: The substituted pteridines prepared were assayed for inhibition of soybean lipoxygenase (Table 1) (Supplementary Information). Many studies have used readily obtainable soybean lipoxygenase, which is a homologue of mammalian lipoxygenase and well examined. The availability of soybean LOX and its well-characterized crystal structure led to its use in this study.
Determination of soybean lipoxygenase inhibition
A solution in DMSO of each compound to be tested was incubated at room temperature with sodium linoleate (0.1 mM) and a solution of soybean lipoxygenase (EC 1.13.11.12) (1:9 x 10^4 w/v in saline, 0.2 mL, Sigma). The conversion of sodium linoleate to 13-hydroperoxylinoleic acid was monitored by observation at 234 nm and compared with the value of appropriate standard inhibitor (Table 1).
(§1) IC50 determinations. OriginPro 8 was used to determine IC50 values from the sigmoidal line fitted to a graph of log[concentration] against the average percentage inhibition from two independent experiments, with at least 6 different concentrations. The SEM is the calculated standard error in the IC50 value of the fitted line.

[1] = Reducing ability in DPPH assay; settings: compound 100 μM
Procedure: Previous work has shown that pterins, their dihydro- and their tetrahydro-derivatives can each be antioxidants or pro-oxidants, depending on the particular conditions. In the present study, several assays were used to assess in vitro antioxidant activity in order to obtain representative information; each method involves the generation of a different radical.
Determination of reducing activity using 1,1-diphenyl-2-picrylhydrazyl radical (DPPH)
To a solution of DPPH in absolute ethanol was added an equal volume of the compound to be tested dissolved in DMSO (20 µL). From a stock solution (10 mM) was prepared a final solution of 100 µM for evaluation of the compounds. The absorbance at 517 nm was recorded after 20 and 60 min at room temperature (Table 2).

[2] = Competition with DMSO for hydroxyl radicals; settings: compound at 100 µM, Fe3+/ascorbic acid, DMSO 33 mM
Procedure: Competition of the novel pteridine derivatives with dimethyl sulfoxide for hydroxyl radicals was measured. […] The majority of the derivatives were excellent scavengers of hydroxyl radicals with activity higher than the reference compound 6-hydroxy-2,5,7,8-tetramethylchroman-2-carboxylic acid (Trolox).
Competition of pteridine derivatives with DMSO for hydroxyl radicals
Hydroxyl radicals generated by the Fe^3+/ascorbic acid system were detected by determination of formaldehyde produced from the oxidation of DMSO, according to the procedure of Nash. The reaction mixture comprised ethylenediaminetetracetic acid (EDTA) (0.1 mM), Fe^3+ (167 μM), DMSO (33 mM) in phosphate buffer (50 mM, pH 7.4), ascorbic acid (10 mM) and the compound to be tested at 100 µM. After incubation at 37 °C for 30 min the mixture was quenched with aqueous trichloroacetic acid (17% w/v) (Table 2) and the percentage competition of the tested compounds with DMSO for hydroxyl radicals was determined (Table 2).

[3] = Inhibition of linoleic acid peroxidation (AAPH); settings: linoleic acid peroxidation initiated by AAPH, 37 °C, pH 7.4
From the text: Azo compounds that generate free radicals through spontaneous thermal decomposition are useful for in vitro studies of free radical production. The water-soluble AAPH has been extensively used as a clean and controllable source of thermally produced alkylperoxyl free radicals. […] Evidently, the presence of 6,7-dimethyl groups on the pteridine ring greatly enhances protection against lipid peroxidation; the nature of the alkyl group and ring size on the 2-substituent has some, but much less, effect. […] The role of lipophilicity (as assessed from calculated clogP values; Table 1) is not clear, but substituent bulk plays a significant role.
Inhibition of linoleic acid peroxidation
Production of conjugated diene hydroperoxide by oxidation of linoleic acid in an aqueous dispersion was monitored at 234 nm. 2,2’-Azobis(2-amidinopropane) dihydrochloride (AAPH) was used as a free radical initiator. This assay was used to follow oxidative changes and to determine the inhibition of the peroxidation of sodium linoleate by each tested compound. A dispersion of sodium linoleate (16 mM, 10 μL) was added to the UV cuvette containing phosphate buffer (0.05 M, 0.93 mL) at pH 7.4 and kept in a thermostat at 37 °C. The oxidation reaction was initiated at 37 °C under air by the addition of AAPH solution (40 mM, 50 μL). Oxidation was carried out in the presence of aliquots (10 μL) of the tested compound. In the assay without antioxidant, lipid oxidation was measured in the presence of DMSO (10 μL). The rate of oxidation at 37 °C was monitored by recording the increase in absorption at 234 nm caused by conjugated diene hydroperoxide formation (Table 2).
as §1

rat model of colitis = assay: Acetic acid-induced colitis in the rat; type: in vivo, Fisher 344 rats; settings: 0.01 mmol/kg intrarectally, 4% acetic acid, assessed after 48 h
Procedure: LOX has also been associated with inflammation and ulcerative colitis. In the present study, a model for colitis involving intracolonic administration of aqueous 4% acetic acid in the rat was used, leading to acute inflammatory reaction. Treated rats presented partial to diffuse petechial bleeding, single erosion and limited ulceration indicating an overall healing effect of the compounds. Substituted pteridines presenting a satisfactory combination of activities 5a, 18a, 18d and 18f were tested using this in vivo model characterized by diffuse exfoliated mucosa as well as multiple and extended erosion and ulcers of the colon (Table 3). No mortality was encountered.
Fisher 344 rats (150-200 g) were housed in wire-mesh cages, given standard laboratory chow and tap water ad libitum and acclimatized for one week before experiments. Rats were randomly assigned to experimental groups. All in vivo experiments conform to the law for the protection of experimental animals (Republic of Greece) and are registered at the Veterinary Administration of the Republic of Greece in accordance with recognized guidelines on animal experimentation including Directive 2010/63/EU.
Induction of colitis
Rats were anesthetized using pentobarbital (50 mg/kg ip) prior to administration with 1 mL of either vehicle (0.9% w/v saline) or the compound under study at doses 0.01mmol/kg intrarectally via a polyethylene cannula (fitted to a 1 mL syringe) with the tip inserted approximately 8 cm into the anus. Following 30 min pretreatment, 1 ml of 4% acetic acid was introduced into the colon intrarectally and, after exposure for 60 s, the excess fluid was withdrawn. The luminal content was then expelled by instillation of air (10 mL), the ligature was removed and the abdomen was sutured. Both groups of rats were allowed to recover with food and water and the resulting injury was assessed after 48 h. The experiment was conducted using two groups, each containing 3 animals.
Assessment of colonic damage. Rats were weighed, inspected for the presence of diarrhea and sacrificed using diethyl ether. The colons were excised and opened longitudinally, rinsed with cold saline, pinned out and observed under a dissecting microscope. Colonic damage was scored using the system of MacPherson and Pfeiffer: 0 – normal appearance, 1- hyperaemia, 2 – patchy petechial bleeding, 3 – diffuse petechial bleeding, 4 – partial exfoliated mucosa or single erosion or ulceration, 5 – diffuse exfoliated mucosa or multiple erosions or ulceration. The presence or absence of adhesions between the colon and the surrounding tissues was recorded. Scoring of the colonic damage (Table 4) was carried out by an observer unaware of the treatment.

SMILES | inhibition at 100 µM (soybean lipoxygenase) [%] | RA (%) 100μM 20 min [1] [%] | RA (%) 100μM 60 min [1] [%] | Hydroxyl radicals scavenged (%) [2] [%] | IC50 [3] [µM] | Change in body weight (%) (rat model of colitis) | IC50 (soybean lipoxygenase) [µM] | melting point [°C] | IC50 ([3]; listed as 24) [µM]
CN1CCN(c2nc(N)c3nccnc3n2)CC1 [Compound 5a, 2-(4-methylpiperazin-1-yl) pteridin-4-amine] | 37.5 ± 0.1 | 15 | 14 | 98 | 41 ± 1.1 | -1.1 | – | – | –
Cc1nc2nc(N3CCN(C)CC3)nc(N)c2nc1C [Compound 5b] | – | 0 | 13 | 94 | 40 ± 0.8 | – | 100 ± 0.3 | – | –
CN1CCN(c2nc(N)c3nc(-c4ccccc4)c(-c4ccccc4)nc3n2)CC1 [Compound 5c] | 22.5 ± 0.1 | 10 | 6 | 100 | 0.5 ± 0.03 | – | – | 107 to 109 | –
CN1CCN(c2nc(N3CCN(C)CC3)c3nccnc3n2)CC1 [Compound 9] | – | 8 | 14 | 96 | 0.73 ± 0.2 | – | 5 ± 0.1 | – | –
CCN1CCNc2nc(N3CCN(C)CC3)nc(N3CCN(C)CC3)c21 [Compound 10a] | – | 79 | 81 | 96 | 15 ± 0.2 | – | 5 ± 0.1 | 139 to 140 | –
CCN1CCN(CC)c2c1nc(N1CCN(C)CC1)nc2N1CCN(C)CC1 [Compound 10b] | – | 98 | 97 | 98 | 10 ± 0.43 | – | 55 ± 0.2 | – | –
OC1CCCN(c2nc(N3CCCC(O)C3)c3nccnc3n2)C1 (centres unmarked) [Compound 13] | – | 6 | 13 | 95 | 0.33 ± 0.01 | – | 60 ± 0.3 | – | –
COc1ccccc1CNc1nc(N2CCN(C)CC2)nc2nccnc12 [Compound 18b] | 40 ± 0.2 | 13 | 20 | 90 | 21 ± 0.9 | – | – | – | –
CN1CCN(c2nc(NCCc3ccccc3)c3nccnc3n2)CC1 [Compound 18c] | 22.5 ± 0.2 | 11 | 18 | 97 | 10 ± 0.1 | – | – | 127 to 128 | –
CN1CCN(c2nc(NCc3ccco3)c3nccnc3n2)CC1 [Compound 18e] | 24 ± 0.3 | 10 | 17 | 94 | 0.33 ± 0.03 | – | – | 174 to 175 | –
Cc1nc2nc(N3CCN(C)CC3)nc(NCc3cccs3)c2nc1C [Compound 18g] | – | 12 | 12 | 100 | 0.1 ± 0.01 | – | 88.5 ± 1.2 | 89 to 90 | –
CCN1CCN(c2nc(NCc3cccs3)c3nccnc3n2)CC1 [Compound 20a] | – | 4 | 11 | 92 | 20 ± 0.5 | – | 43 ± 0.7 | 148 to 149 | –
CN1CCCN(c2nc(NCc3cccs3)c3nccnc3n2)CC1 [Compound 20b] | – | 15 | 19 | 94 | 41 ± 0.3 | – | 62.5 ± 0.5 | 130 to 131 | –
CN1CCN(c2nc(NCc3cccs3)c3nonc3n2)CC1 [Compound 23] | – | 16 | 18 | 94 | 0.32 ± 0.02 | – | 74 ± 3.5 | – | ~0.3
CC(Cc1ccc(O)c(O)c1)C(C)Cc1ccc(O)c(O)c1 (centres unmarked) [NDGA, Nordihydroguaiaretic acid, reference compound] | – | 81 | 83 | – | – | – | – | – | –
Cc1c(C)c2c(c(C)c1O)CCC(C)(C(=O)O)O2 (centres unmarked) [Trolox, 6-hydroxy-2,5,7,8-tetramethylchroman-2-carboxylic acid, reference compound] | – | – | – | 73 | 55.5 | – | – | – | –
